“And” between values parts separate entries of the source, which are not always exact repeats. Equal entries are not always repeated.
Columns and labels:
Assay in all cases: biochemical
Format in all cases: biochemical
[1] = target: T1, EfBChE (butyrylcholinesterase from equine serum) (Equus caballus, UniProt P81908); settings: for SI, selectivity index based on IC50 values (EeAChE vs EfBChE): ratio of EfBChE to EeAChE IC50 values; for IC50: with standard error, 25 °C, 10 min preincubation, read-out: IC50, inhibition of EfBChE; for fold better than donepezil against EfBChE: ratio of IC50 values
T1 construct: EfBChE from equine serum (Equus ferus); from tissue; host or cells: equine serum
T1 sequence (P81908 whole entry): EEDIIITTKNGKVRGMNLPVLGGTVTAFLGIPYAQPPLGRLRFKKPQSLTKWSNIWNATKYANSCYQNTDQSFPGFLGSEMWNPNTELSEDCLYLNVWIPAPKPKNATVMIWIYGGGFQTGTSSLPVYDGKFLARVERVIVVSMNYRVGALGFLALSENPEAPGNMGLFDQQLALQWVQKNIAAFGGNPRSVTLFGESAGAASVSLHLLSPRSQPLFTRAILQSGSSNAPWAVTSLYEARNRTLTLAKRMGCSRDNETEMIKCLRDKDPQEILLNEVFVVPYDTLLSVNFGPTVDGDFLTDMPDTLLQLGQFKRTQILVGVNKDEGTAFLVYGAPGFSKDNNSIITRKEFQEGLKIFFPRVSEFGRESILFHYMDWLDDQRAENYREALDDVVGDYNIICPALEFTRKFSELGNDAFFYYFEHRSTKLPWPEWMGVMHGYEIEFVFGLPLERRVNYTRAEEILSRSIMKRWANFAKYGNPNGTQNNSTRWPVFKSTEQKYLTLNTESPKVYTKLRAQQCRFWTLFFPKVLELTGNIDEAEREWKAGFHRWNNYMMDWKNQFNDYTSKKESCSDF
Description: (§1) Experiments were performed as previously described. […] All assays were performed in duplicate or triplicate.

[2] = target: EeAChE (acetylcholinesterase from Electrophorus electricus) (Electrophorus electricus, UniProt O42275); settings: for IC50: with standard error, 25 °C, 10 min preincubation, read-out: IC50, inhibition of EeAChE; for fold enhanced potency against EeAChE compared to donepezil: ratio of IC50 values
Chain of EeAChE (acetylcholinesterase from Electrophorus electricus) (O42275 24-633): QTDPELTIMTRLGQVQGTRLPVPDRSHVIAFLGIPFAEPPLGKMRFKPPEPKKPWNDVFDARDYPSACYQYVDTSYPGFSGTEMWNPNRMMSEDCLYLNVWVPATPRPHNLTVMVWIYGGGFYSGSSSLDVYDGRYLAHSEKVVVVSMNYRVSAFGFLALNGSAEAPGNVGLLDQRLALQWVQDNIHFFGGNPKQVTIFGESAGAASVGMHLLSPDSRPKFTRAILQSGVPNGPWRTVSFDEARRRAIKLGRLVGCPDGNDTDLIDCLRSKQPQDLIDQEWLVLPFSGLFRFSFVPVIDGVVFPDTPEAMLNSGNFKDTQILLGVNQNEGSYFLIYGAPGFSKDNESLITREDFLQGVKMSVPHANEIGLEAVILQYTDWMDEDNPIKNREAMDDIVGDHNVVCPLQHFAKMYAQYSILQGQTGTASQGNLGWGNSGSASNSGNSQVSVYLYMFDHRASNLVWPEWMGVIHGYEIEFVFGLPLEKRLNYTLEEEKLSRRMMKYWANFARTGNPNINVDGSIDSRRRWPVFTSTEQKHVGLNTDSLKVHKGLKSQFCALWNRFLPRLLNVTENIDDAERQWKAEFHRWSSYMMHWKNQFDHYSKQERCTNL
Description: as §1

BACE1 = target: T2, BACE1 (Homo sapiens, UniProt P56817); settings: for IC50: fluorescence after 2 h, read-out: IC50, inhibition of BACE1
T2 construct: purchased Millipore-Sigma CS0010-1KT
T2 sequence (P56817 46-457): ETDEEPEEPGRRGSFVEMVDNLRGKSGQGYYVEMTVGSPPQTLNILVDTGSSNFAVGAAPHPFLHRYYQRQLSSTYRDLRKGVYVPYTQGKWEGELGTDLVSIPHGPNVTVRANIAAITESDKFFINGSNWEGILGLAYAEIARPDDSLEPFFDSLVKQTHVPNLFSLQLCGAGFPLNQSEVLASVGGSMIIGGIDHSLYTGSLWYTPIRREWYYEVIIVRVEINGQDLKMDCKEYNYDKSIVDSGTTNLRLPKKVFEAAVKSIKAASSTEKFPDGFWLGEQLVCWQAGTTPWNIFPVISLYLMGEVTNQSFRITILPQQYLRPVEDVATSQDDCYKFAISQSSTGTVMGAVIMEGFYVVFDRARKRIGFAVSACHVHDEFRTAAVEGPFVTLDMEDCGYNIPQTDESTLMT
Description: Inhibition of BACE1 was tested using the commercial kit (cat CS0010-1KT, Millipore-Sigma, St. Louis, MO, USA) following the directions accompanying the kit. […] Dilutions were originally performed in DMSO, and 2 μL added to the reaction in order to account for any moderation of activity from the vehicle. Fluorescent measurements were taken after 2 h. The resulting rates were normalized to the reaction without inhibitor. In order to get an appropriate sigmoidal fit, two additional points (400 and 1000 μM) were added to the data when needed.

[3] = target: HsAChE (acetylcholinesterase from Homo sapiens) (Homo sapiens, UniProt P22303)
Chain of HsAChE (acetylcholinesterase from Homo sapiens) (P22303 32-614): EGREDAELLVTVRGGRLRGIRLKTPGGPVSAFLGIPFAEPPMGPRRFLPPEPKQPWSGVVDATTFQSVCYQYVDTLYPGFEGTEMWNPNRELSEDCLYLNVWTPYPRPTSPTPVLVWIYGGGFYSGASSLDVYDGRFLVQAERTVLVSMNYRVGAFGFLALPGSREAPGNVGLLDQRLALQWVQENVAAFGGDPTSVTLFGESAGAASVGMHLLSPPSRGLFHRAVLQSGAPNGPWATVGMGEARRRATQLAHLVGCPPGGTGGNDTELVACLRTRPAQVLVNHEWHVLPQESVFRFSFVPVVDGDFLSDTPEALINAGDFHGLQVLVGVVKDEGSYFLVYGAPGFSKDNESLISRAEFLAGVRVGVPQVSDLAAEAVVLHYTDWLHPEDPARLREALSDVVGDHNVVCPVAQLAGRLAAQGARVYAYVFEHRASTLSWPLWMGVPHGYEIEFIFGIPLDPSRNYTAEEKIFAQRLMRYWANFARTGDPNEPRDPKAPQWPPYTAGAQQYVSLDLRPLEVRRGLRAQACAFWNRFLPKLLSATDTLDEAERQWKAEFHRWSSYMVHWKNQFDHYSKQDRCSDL
Description: as §1

SMILES | SI, selectivity index based on IC50 values (EeAChE vs EfBChE) [1] | IC50 [1] | IC50 [2] | BACE1 IC50 within fold of the IC50 of donepezil (BACE1) | IC50 (BACE1) | fold more selective for EfBChE (over EeAChE) [1] | fold better than donepezil against EfBChE [1] | fold enhanced potency against EeAChE compared to donepezil [2] | SI, selectivity index of EeAChE versus HsAChE, based on IC50 values [3] | IC50 ([3]; 37 °C, read-out: IC50, inhibition of HsAChE) | fold better inhibition of HsAChE than donepezil ([3]; ratio of IC50 values)
COc1cc2c(cc1OCCCCCCCCCCCCBr)C(=O)C(CC1CCN(Cc3ccccc3)CC1)C2 (centres unmarked) [Compound 8g, 2-[(1-Benzylpiperidin-4-yl)methyl]-6-[(bromododecyl)oxy]-5-methoxy-2,3-dihydroinden-1-one] | 6.6 | 5150 nM and 5200 nM | 789 nM and 790 nM | – | – | – | – | – | – | – | –
CCCOc1cc2c(cc1OC)CC(CC1CCN(Cc3ccccc3)CC1)C2=O (centres unmarked) [Compound 8c, 2-[(1-Benzylpiperidin-4-yl)methyl]-5-methoxy-6-propoxy-2,3-dihydroinden-1-one] | 15 | 2050 nM and 2100 nM | 140 ± 20 nM | ≤ 5 fold | 6100 ± 100 nM | – | – | – | – | – | –
COc1cc2c(cc1OCc1cccc(F)c1)C(=O)C(CC1CCN(Cc3ccccc3)CC1)C2 (centres unmarked) [Compound 8n] | 6.0 | 959 nM and 960 nM | 156 nM and 160 nM | – | 12000 ± 3000 nM | – | – | – | – | – | –
COc1cc2c(cc1OCc1c(F)c(F)c(F)c(F)c1F)C(=O)C(CC1CCN(Cc3ccccc3)CC1)C2 (centres unmarked) [Compound 8v] | – | 114 nM and 110 nM | 172 nM and 170 nM | – | 29000 ± 6000 nM | 1.5 fold | 18 fold | – | – | – | –
COc1cc2c(cc1OCc1ccc(C)cc1)C(=O)C(CC1CCN(Cc3ccccc3)CC1)C2 (centres unmarked) [Compound 8i] | 4.3 | 997 nM and 1000 nM | 228 nM and 230 nM | – | 58000 ± 2000 nM | – | – | – | – | – | –
COc1cc2c(cc1OCc1ccc(F)cc1F)C(=O)C(CC1CCN(Cc3ccccc3)CC1)C2 (centres unmarked) [Compound 8q] | 4.4 | 483 nM and 480 nM | 113 nM and 110 nM | – | 37000 ± 5000 nM | – | 4 fold | – | – | – | –
COc1cc2c(cc1OCCCl)C(=O)C(CC1CCN(Cc3ccccc3)CC1)C2 (centres unmarked) [Compound 8d, 2-[(1-Benzylpiperidin-4-yl)methyl]-6-[(chloroethyl)oxy]-5-methoxy-2,3-dihydroinden-1-one] | 22 | 1300 ± 100 nM | 59 ± 4 nM | – | ~100000 nM | – | 2 fold | 2 fold | – | – | –
COc1cc2c(cc1OCc1cc(F)ccc1F)C(=O)C(CC1CCN(Cc3ccccc3)CC1)C2 (centres unmarked) [Compound 8r] | 6.7 | 601 nM and 600 nM | 90 ± 9 nM | – | ~100000 nM | – | 3 fold | – | – | – | –
COc1cc2c(cc1OCc1c(F)cccc1F)C(=O)C(CC1CCN(Cc3ccccc3)CC1)C2 (centres unmarked) [Compound 8s] | 28 | 438 nM and 440 nM | 16 ± 1 nM | – | 30000 ± 8000 nM | – | 5 fold | eight | – | – | –
COc1cc2c(cc1O)C(=O)C(CC1CCN(Cc3ccccc3)CC1)C2 (centres unmarked) [Compound 7, 2-[(1-Benzylpiperidin-4-yl)methyl]-6-hydroxy-5-methoxy-2,3-dihydroinden-1-one] | 11 | 4300 ± 400 nM | 409 nM and 410 nM | – | – | – | – | – | – | – | –
COc1cc2c(cc1OCc1ccccc1)C(=O)C(CC1CCN(Cc3ccccc3)CC1)C2 (centres unmarked) [Compound 8h] | 5.4 | 704 nM and 700 nM | 131 nM and 130 nM | – | 58000 ± 1000 nM | – | 3 fold | – | – | – | –
COc1cc2c(cc1OCc1ccc([N+](=O)[O-])cc1)C(=O)C(CC1CCN(Cc3ccccc3)CC1)C2 (centres unmarked) [Compound 8k] | 3.5 | 462 nM and 460 nM | 126 nM and 130 nM | – | – | – | – | – | – | – | –
COc1cc2c(cc1OCc1ccccc1C(F)(F)F)C(=O)C(CC1CCN(Cc3ccccc3)CC1)C2 (centres unmarked) [Compound 8p] | 7.8 | 254 nM and 250 nM | 32 ± 10 nM | – | 34000 ± 9000 nM | – | 8 fold | 4 fold | – | – | –
COc1cc2c(cc1OCc1c(F)cc(F)cc1F)C(=O)C(CC1CCN(Cc3ccccc3)CC1)C2 (centres unmarked) [Compound 8u] | 7.4 | 199 nM and 200 nM | 27 ± 4 nM | – | 91000 ± 14000 nM | – | 10 fold | five | – | – | –
COc1cc2c(cc1OCc1ccc(Br)cc1F)C(=O)C(CC1CCN(Cc3ccccc3)CC1)C2 (centres unmarked) [Compound 8t] | 6.9 | 372 nM and 370 nM | 54 ± 7 nM | – | 169000 ± 2000 nM | – | – | 2.2 fold | 30 | 1.8 ± 0.6 nM | 18 fold
COc1cc2c(cc1OCCBr)C(=O)C(CC1CCN(Cc3ccccc3)CC1)C2 (centres unmarked) [Compound 8e, 2-[(1-Benzylpiperidin-4-yl)methyl]-6-[(bromoethyl)oxy]-5-methoxy-2,3-dihydroinden-1-one] | 30 | 1290 nM and 1300 nM | 44 ± 3 nM | ≤ 5 fold | 7900 ± 900 nM | – | 2 fold | 3 fold | – | – | –
COc1cc2c(cc1OCCCN)C(=O)C(CC1CCN(Cc3ccccc3)CC1)C2 (centres unmarked) [Compound 8a, 6-[(3-Aminopropyl)oxy]-2-[(1-benzylpiperidin-4-yl)methyl]-5-methoxy-2,3-dihydroinden-1-one] | 11 | 573 nM and 570 nM | 54 ± 3 nM | – | 95000 ± 12000 nM | – | 4 fold | – | – | – | –
COc1cc2c(cc1OCCCCBr)C(=O)C(CC1CCN(Cc3ccccc3)CC1)C2 (centres unmarked) [Compound 8f, 2-[(1-Benzylpiperidin-4-yl)methyl]-6-[(bromobutyl)oxy]-5-methoxy-2,3-dihydroinden-1-one] | 21 | 1280 nM and 1300 nM | 61 ± 7 nM | ≤ 5 fold | 7900 ± 2400 nM | – | – | – | – | – | –
COc1cc2c(cc1OCCN)C(=O)C(CC1CCN(Cc3ccccc3)CC1)C2 (centres unmarked) [Compound 8b, 6-[(3-Aminoethyl)oxy]-2-[(1-benzylpiperidin-4-yl)methyl]-5-methoxy-2,3-dihydroinden-1-one] | 23 | 478 nM and 480 nM | 21 ± 3 nM | – | ~100000 nM | – | 4 fold | 6 fold | – | – | –
COc1cc2c(cc1OCc1ccc(Br)cc1)C(=O)C(CC1CCN(Cc3ccccc3)CC1)C2 (centres unmarked) [Compound 8l] | 10 | 720 ± 100 nM | 71 ± 15 nM | ≤ 5 fold | 3400 ± 100 nM | – | – | – | – | – | –
COc1cc2c(cc1OCc1ccc(F)cc1)C(=O)C(CC1CCN(Cc3ccccc3)CC1)C2 (centres unmarked) [Compound 8m] | 7.0 | 570 ± 100 nM | 81 ± 5 nM | – | ~100000 nM | – | – | – | – | – | –
COc1cc2c(cc1OCc1ccccc1F)C(=O)C(CC1CCN(Cc3ccccc3)CC1)C2 (centres unmarked) [Compound 8o] | 6.3 | 764 nM and 760 nM | 124 nM and 120 nM | – | 21000 ± 4000 nM | – | – | – | – | – | –
COc1ccc(COc2cc3c(cc2OC)CC(CC2CCN(Cc4ccccc4)CC2)C3=O)cc1 (centres unmarked) [Compound 8j] | 5.2 | 668 nM and 670 nM | 125 nM and 130 nM | – | – | – | – | – | – | – | –

— publication PMC6321525 (Molecules, 2018)
